Patent US6737425B1, “N,N-substituted cyclic amine derivatives” (Eisai Co., Ltd., priority 1998, dated 2004)
Counter-ions that a name gives are not always drawn.

Key:
[1] = tested on: glutamic acid release from rat cerebral cortex slices; assay: Inhibitory activity on glutamic acid release (cerebral cortex slices, high-conc. KCl); format: cell-based; settings: glutamic acid release induced with 50 mM KCl, HPLC
Description: Inhibitory Activity on Glutamic Acid Release
Cerebral cortexes were isolated from SD strain male rats (8-week-old) and used to prepare 300 μm×300 μm slices by use of a slice chopper. The prepared slices were incubated at 37° C. for 30 minutes in solution C (120 mM NaCl, 4 mM KCl, 10 mM MgSO4, 16 mM NaHCO3, 10 mM glucose, 1 mM NaH2PO4, 10 mM HEPES-NaOH pH 7.4) in the presence of 95% O2/5% CO2. Thereafter, solution C was exchanged with fresh one, followed by further incubation for 30 minutes.
The cerebral cortex slices were incubated in a 24-wells plate for cell culture according to a multi-well method (Brain Res., 402, 255-263, 1987), and the release of glutamic acid was induced with 50 mM KCl. Solution D (120 mM NaCl, 4 mM KCl, 1.2 mM CaCl2, 1 mM MgSO4, 16 mM NaHCO3, 10 mM glucose, 1 mM NaH2PO4, 10 mM HEPES-NaOH pH 7.4) was aerated with 95% O2/5% CO2 and kept at 37° C. and used in this experiment. 50 mM KCl containing the same total amount of K^+ and Na^+ was prepared. Slices corresponding to 1 to 2 mg protein were placed on an upper cup provided with a mesh at the bottom, and 1.3 ml solution C or 50 mM KCl solution was introduced into a lower well, and the upper cup was transferred to a new well. 20 minutes before and 5 minutes after reaction was intiated, the test compound was added to solution D or 50 mM KCl.
Glutamic acid was quantified by HPLC using fluorescent etor (Ex. 330 nm Em. […]). The eluting solvent used was prepared by diluting 150 ml sodium citrate buffer for automatic amino acid analysis (Wako Pure Chemical Industries) 10-fold with distilled water, then adding MgCl2 thereto at the final concentration of 50 mM, and further diluting it twice with acetonitrile. The flow rate was 2.0 ml/min. The column used was Asahipak (ES-502N Denko, K. K.). The glutamic acid was converted into a derivative by addition, to 50 μl sample, of 50 μl deriving agent (10 mg o-phthalaldehyde/500 μl MeOH, 10 μl b-mercaptopropionic acid, 0.15 M sodium borate buffer pH 9.5, 100 μl) followed by stirring (Neuroscience Lett., 96, 202-206, 1989).

[2] = tested on: voltage-dependent calcium channels (cerebral cortex synaptosome); assay: Measurement of voltage-dependent calcium channel activity by the use of a fluorescent pigment (fura 2); format: cell-based; settings: rat cerebral cortex synaptosome, fura 2, KCl stimulation, compound incubated 10 minutes
Description: Measurement of Voltage-dependent Calcium Channel Activity by the use of a Fluorescent Pigment (fura 2)
Cerebral cortexes were removed from cut rat brains and disrupted roughly with scissors. These were introduced into a homogenizer, homogenized in 0.3 M saccharose and centrifuged at 4° C. (1,500 g×10 min). The resulting supernatant was further centrifuged at 4° C. (10,000 g×20 min). The resulting precipitates were suspended in 0.3 M saccharose. The suspension was layered on 0.8 M saccharose and centrifuged (10,000 g×30 min.).
4 μM fura 2/AM (Dojin Ltd.) was suspended in solution A to prepare a loading solution. To the synaptosome solution prepared in the method described above was added an equal volume of the loading solution, and the mixture was incubated for 40 minutes at room temperature.
As comparative and control compound, verapamil hydrochloride was used.

SMILES | IC50 ([1]; Hydrochloride) [µM] | IC50 ([2]; Hydrochloride) [µM] | IC50 ([1]; Rattus norvegicus) [µM] | IC50 [2] [µM]
CC(C)C(C#N)(CCCN1CCN(CCOc2ccc(F)cc2)CC1)c1ccccc1 (single isomer, unassigned; (+)) [Example 76, (+)-1-[(4-Cyano-5-methyl-4-phenyl)hexyl]-4-[2-(4-fluorophenoxyl)ethyl]piperazine Hydrochloride] | 3.9 | 5.8 |  | 
CC(C)C(C#N)(CCCN1CCN(CCOc2ccc(F)cc2)CC1)c1ccccc1 (single isomer, unassigned; (-)) [Example 75, hydrochloride] |  | 4.5 | 2.9 | 
N#CC(CCCN1CCN(CCOc2ccc(F)cc2)CC1)(c1ccccc1)C1CCCCC1 (single isomer, unassigned; (-)) [Example 79, (−)-1-[(4-Cyano-4-cyclohexyl-4-phenyl)butyl]-4-[2-(4-fluorophenoxyl)ethyl]piperazine Hydrochloride] |  | 3.3 | 5.9 | 
Cc1ccc(C(C#N)(CCCN2CCN(CCOc3ccc(F)cc3)CC2)C(C)C)cc1 (centres unmarked) [Example 9, 1-[4-Cyano-5-methyl-4-(4-methylphenyl)hexyl]-4-[2-(4-fluorophenoxy)ethyl]piperazine] |  |  | 2.4 | 3.5
CC(C)C(C#N)(CCCN1CCN(CCOc2ccc(F)cc2)CC1)c1ccc(Cl)cc1 (centres unmarked) [Example 10, 1-[4-Cyano-5-methyl-4-(4-chlorophenyl)hexyl]-4-[2-(4-fluorophenoxy)ethyl]piperazine] |  |  | 2 | 3.2
COc1ccc(C(C#N)(CCCN2CCN(CCOc3ccc(F)cc3)CC2)C(C)C)cc1 (centres unmarked) [Example 11, 1-[4-Cyano-5-methyl-4-(4-methoxyphenyl)hexyl]-4-[2-(4-fluorophenoxy)ethyl]piperazine] |  |  | 3.8 | 4.8
CC(C)C(C#N)(CCCN1CCN(CCOc2ccc(F)cc2)CC1)c1cccs1 (centres unmarked) [Example 20, 1-{[4-Cyano-5-methyl-4-(2-thienyl)hexyl]}-4-[2-(4-fluorophenoxy)ethyl]piperazine] |  |  | 1.9 | 5.5
CC(C)C(C#N)(CCCN1CCN(CCOc2ccc(F)cc2)CC1)c1ccccc1F (centres unmarked) [Example 22, 1-{[4-Cyano-5-methyl-4-(2-fluorophenyl)hexyl]}-4-[2-(4-fluorophenoxy)ethyl]piperazine] |  |  | 4.1 | 5.4
CC(C)C(C#N)(CCCN1CCN(CCOc2ccc(F)cc2)CC1)c1cccc(F)c1 (centres unmarked) [Example 23, 1-[{4-Cyano-5-methyl-4-(3-flourophenyl)hexyl]}-4-[2-(4-fluorophenoxy)ethyl]piperazine] |  |  | 2.5 | 4.3
CC(C)C(C#N)(CCCN1CCN(CCOc2ccc(F)cc2)CC1)c1ccc(F)cc1 (centres unmarked) [Example 24, 1-{[4-Cyano-5-methyl-4-(4-fluorophenyl)hexyl]}-4-[2-(4-fluorophenoxy)ethyl]piperazine] |  |  | 2.4 | 3.9
CC(C)C(C#N)(CCCN1CCN(CCOc2ccc(Cl)cc2)CC1)c1ccccc1 (centres unmarked) [Example 36, 1-[(4-Cyano-5-methyl-4-phenyl)hexyl]-4-[2-(4-chlorophenoxy)ethyl]piperazine] |  |  | 4.2 | 3.4
CC(C)C(C#N)(CCCN1CCN(CCN(C)c2ccc(F)cc2)CC1)c1ccccc1 (centres unmarked) [Example 52, 1-[(4-Cyano-5-methyl-4-phenyl)hexyl]-4-{2-[N-(4-fluorophenyl)-N-methylamino]ethyl}piperazine] |  |  | 2.9 | 3.8
CC(C)C(C#N)(CCCN1CCN(CCOc2ncccn2)CC1)c1ccccc1 (centres unmarked) [Example 112, 1-[(4-Cyano-5-methyl-4-phenyl)hexyl]-4-[2-(2-pyrimidinyloxy)ethyl]piperazine] |  |  |  | > 16
CC(C)C(C#N)(CCCN1CCN(CCOc2ccccc2-c2cccnc2)CC1)c1ccccc1 (centres unmarked) [Example 113, 1-[(4-Cyano-5-methyl-4-phenyl)hexyl]-4-{2-[2-(3-pyridyl)phenoxy]ethyl}piperazine] |  |  |  | 4.5
CC(C)C(C#N)(CCCN1CCN(CCOc2ccc(F)cc2)CC1)c1ccc(C#N)s1 (centres unmarked) [Example 114, 1-[4-Cyano-5-methyl-4-(2-cyano-5-thienyl)hexyl]-4-[2-(4-fluorophenoxy)ethyl]piperazine] |  |  |  | 6.8
CC(C)C(C#N)(CCCN1CCN(CCOc2cccc(F)c2)CC1)c1ccc(C#N)s1 (centres unmarked) [Example 115, 1-[4-Cyano-5-methyl-4-(2-cyano-5-thienyl)hexyl]-4-[2-(3-fluorophenoxy)ethyl]piperazine] |  |  |  | 5.8
CC(C)C(C#N)(CCCN1CCN(CCOc2cccc(F)c2)CC1)c1cccs1 (centres unmarked) [Example 116, 1-[4-Cyano-5-methyl-4-(2-thienyl)hexyl]-4-[2-(3-fluorophenoxy)ethyl]piperazine] |  |  |  | 5.5
CC(C)C(C#N)(CCCN1CCN(CCOc2cccc(-c3ccsc3)c2)CC1)c1ccccc1 (centres unmarked) [Example 117, 1-[(4-Cyano-5-methyl-4-phenyl)hexyl]-4-{2-[3-(3-thienyl)phenoxy]ethyl}piperazine] |  |  |  | 3.2
Cc1cccc(/C=C/c2ccccc2OCCN2CCN(CCCC(C#N)(c3ccccc3)C(C)C)CC2)n1 (centres unmarked) [Example 118, 1-[(4-Cyano-5-methyl-4-phenyl)hexyl]-4-{2-[2-(6-methyl-2-pyridyl)vinylphenoxyl]ethyl}piperazine] |  |  |  | 6.4
CC(C)C(C#N)(CCCN1CCN(CCOc2cccc(C#N)c2)CC1)c1ccccc1 (centres unmarked) [Example 119, 1-[(4-Cyano-5-methyl-4-phenyl)hexyl]-4-[2-(3-cyanophenoxy)ethyl]piperazine] |  |  |  | 7.7
CC(C)C(C#N)(CCCN1CCN(CCOc2cccc(-c3ccccc3)c2)CC1)c1ccccc1 (centres unmarked) [Example 120, 1-[(4-Cyano-5-methyl-4-phenyl)hexyl]-4-[2-(3-phenylphenoxy)ethyl]piperazine] |  |  |  | 4.1
CC(C)C(C#N)(CCCN1CCN(CCOc2cccc(/C=C/C#N)c2)CC1)c1ccccc1 (centres unmarked) [Example 121, 1-[(4-Cyano-5-methyl-4-phenyl)hexyl]-4-{2-[3-(2-cyanovinyl)phenoxy]ethyl}piperazine] |  |  |  | 6.8
CC(C)C(C#N)(CCC(=O)N1CCN(CCOc2ccc(F)cc2)CC1)c1ccccc1 (centres unmarked) [Example 122, 1-[(4-Cyano-5-methyl-4-phenyl)hexanoyl]-4-[2-(4-fluorophenoxy)ethyl]piperazine] |  |  |  | 12
